Laboratory results as given in patent publication EP0369035A1, “AGENT FOR TREATING PANCREATITIS OR THE LIKE” (priority 1988, dated 1989).
pIC50: −log10 of the molar value.

Columns and labels:
human urokinase = human urokinase (Homo sapiens, UniProt P00749); experiment: Anti-urokinase activity: inhibition of S-2444 degradation; format: biochemical; details: substrate S-2444, 37°C, pH 8.8; read-out: Urokinase S-2444 (I50)
Procedure: 3) Assay of anti-urokinase activity Assay method of inhibition of S-2444 degradation
The test substance was dissolved in a 0.05 M Tris-HC1 (pH 8.8) buffer to make a total volume of 400 µl, and 50 µl of a 1 mM S-2444 solution was added to the mixture. After incubation at 37°C for 5 minutes in an incubator, an addition of 50 µl of 500 units/ml human urokinase solution, and incubation at 37°C for 5 minutes, the reaction was terminated by an addition of 50 µl of 50% acetic acid.

[1] = tested on: experimental pancreatitis; experiment: Effect on experimental pancreatitis (sodium taurochorate + trypsin into the common bile duct), survival ratio; format: in vivo, SD-rats; details: 80 μg/kg/min. x 80 min. continuous infusion, rat
Description: [II] Effect on experimental pancreatitis
SD-rats, body weight of about 200 g were, starved overnight, and 10 to 24 animals were used in one group. Sodium pentobarbital was intraperioneally administered to anesthetize each rat, and then a cannula was inserted to the femoral vein for the administration of the test substance. After abdominal surgery, the bile duct was blocked at a part thereof proximate to the liver, by a clip, a polyethylene tube was inserted to the common bile duct at a part thereof most proximate to the duodenum, and 0.1 ml of solution containing 2 mg sodium taurochorate and 1000 U trypsin dissolved in physiological saline was injected retrogrodely. After removal of the clip and tube, the common bile duct was ligated and the abdomen was closed. Note, the test substance was dissolved in an injective 5% glucose solution, and in the case of a continuous infusion, the solution was administered over 80 minutes starting from 10 minutes before the generation of pancreatitis. In the case of oral administration, the test substance was administered through an oral catheter 30 minutes before the generation of pancreatitis. After 24 hours and 48 hours from the generation of pancreatitis, the survival ratio of the animals was calculated and compared with a control group.

human plasmin [2] = target: T1, human plasmin (Homo sapiens, UniProt P00747); experiment: Anti-plasmin activity: inhibition of S-2251 degradation; format: biochemical; details: substrate S-2251, 37°C, pH7.4; read-out: Plasmin S-2251 (I50)
T1 construct: 50 µl of 0.2 casein units/ml of human plasmin
T1 sequence (P00747 581-810 limits assumed): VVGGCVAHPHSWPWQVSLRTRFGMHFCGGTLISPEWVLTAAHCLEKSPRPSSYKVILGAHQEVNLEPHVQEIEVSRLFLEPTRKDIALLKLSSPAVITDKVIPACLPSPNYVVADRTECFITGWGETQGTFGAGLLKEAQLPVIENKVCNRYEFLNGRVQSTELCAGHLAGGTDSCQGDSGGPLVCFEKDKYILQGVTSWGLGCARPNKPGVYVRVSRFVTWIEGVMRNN
T1 sequence (P00747 97-580 partner limits assumed): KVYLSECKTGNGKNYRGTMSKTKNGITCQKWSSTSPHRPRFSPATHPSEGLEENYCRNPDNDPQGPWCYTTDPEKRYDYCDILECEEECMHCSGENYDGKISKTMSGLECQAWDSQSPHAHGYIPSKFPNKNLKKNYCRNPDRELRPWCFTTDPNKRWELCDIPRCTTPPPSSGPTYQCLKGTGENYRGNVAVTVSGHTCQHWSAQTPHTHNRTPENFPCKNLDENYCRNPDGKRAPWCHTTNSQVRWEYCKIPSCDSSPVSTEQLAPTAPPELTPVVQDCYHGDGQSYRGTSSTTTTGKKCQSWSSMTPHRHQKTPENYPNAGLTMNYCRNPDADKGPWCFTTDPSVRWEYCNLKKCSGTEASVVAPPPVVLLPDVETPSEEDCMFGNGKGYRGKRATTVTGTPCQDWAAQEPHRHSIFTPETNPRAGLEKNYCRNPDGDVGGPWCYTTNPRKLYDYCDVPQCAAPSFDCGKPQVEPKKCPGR
Procedure: ii) Assay method of inhibition of S-2251 degradation
The test substance was dissolved in a 0.05 M Tris-HC1 (pH7.4) buffer to make a total volume of 400 µl, and 50 µl of a 3 mM S-2251 solution was added to the solution. The mixture was incubated at 37°C for 5 minutes in an incubator, and after the addition of 50 µl of 0.2 casein units/ml of human plasmin, and incubation at 37°C for 4 minutes, the reaction was terminated by an addition of 50 µl of 50% acetic acid.

human plasmin [3] = target: T1, human plasmin; experiment: Anti-plasmin activity: inhibition of fibrinolysis (fibrin clot lysis time); format: biochemical; details: concentration giving a fibrin clot lysis time twice that of control, 37°C, pH7.4; read-out: Plasmin Fibrin (I50)
experimental shock = experiment: Effect on experimental shock (endotoxin-induced), survival ratio; format: in vivo, ICR-mice; details: dose of 30 mg/kg intraperitoneally 15 minutes before endotoxin 40 mg/kg, mouse
Procedure: [IV] Effect on experimental shock
ICR-mice, body weight of about 25 g, were starved overnight. The test substance was dissolved in an injective 5% glucose solution and intraperioneally administered, and 15 minutes later, endotoxin (E. coli 0127:B8, Difco, U.S.) dissolved in a physiological saline was intraperioneally administered to an amount of 40 mg/kg body weight.

human plasma kallikrein = target: T2, human plasma kallikrein (Homo sapiens, UniProt P03952); experiment: Anti-plasma kallikrein activity: inhibition of S-2302 degradation; format: biochemical; details: substrate S-2302, 37°C, pH 7.8; read-out: Plasma kallikrein S-2302 (I50)
T2 construct: 50 µl of 0.12 units/ml human plasma kallikrein solution
T2 sequence (P03952 391-638 limits assumed): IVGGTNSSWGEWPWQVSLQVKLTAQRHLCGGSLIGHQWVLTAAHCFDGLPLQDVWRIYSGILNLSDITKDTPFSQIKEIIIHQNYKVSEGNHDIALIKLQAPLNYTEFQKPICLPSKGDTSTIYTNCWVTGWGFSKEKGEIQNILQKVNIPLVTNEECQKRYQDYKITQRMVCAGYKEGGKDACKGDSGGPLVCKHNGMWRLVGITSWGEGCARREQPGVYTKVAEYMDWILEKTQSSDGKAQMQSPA
T2 sequence (P03952 20-390 partner limits assumed): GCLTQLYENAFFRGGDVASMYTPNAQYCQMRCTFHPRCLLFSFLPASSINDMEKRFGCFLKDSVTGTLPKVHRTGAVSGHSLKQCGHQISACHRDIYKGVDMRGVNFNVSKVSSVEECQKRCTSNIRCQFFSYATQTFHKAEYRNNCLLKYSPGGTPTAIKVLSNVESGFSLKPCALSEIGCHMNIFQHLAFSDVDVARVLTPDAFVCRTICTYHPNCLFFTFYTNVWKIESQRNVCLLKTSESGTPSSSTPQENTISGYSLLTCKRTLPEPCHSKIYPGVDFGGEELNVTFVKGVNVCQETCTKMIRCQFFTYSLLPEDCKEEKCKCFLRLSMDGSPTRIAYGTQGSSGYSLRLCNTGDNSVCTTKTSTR
Procedure: 2) Assay of anti-plasma kallikrein activity Assay method of inhibition of S-2302 degradation
The test substance was dissolved in a 0.05 M Tris-HC1 (pH 7.8) buffer to make a total volume of 400 µl, and 50 µl of a 2 mM S-2302 solution was added to the solution. After incubation at 37°C for 5 minutes in an incubator, an addition of 50 µl of 0.12 units/ml human plasma kallikrein solution, and incubation at 37°C for 5 minutes, the reaction was terminated by an addition of 50 µl of 50% acetic acid.

in vivo = details: mouse, intravenous, ICR male mice, up-and-down method, read-out: Acute toxicity (LD50)
Procedure: ICR male mice 5 to 10 weeks old were used. The test substance was dissolved in a 5% dimethylsulfoxide aqueous solution, and the solution was intravenously administered in an amount of 0.1 to 0.2 ml/10 g body weight. An LD50 value was calculated by up-and-down method.

bovine factor Xa = target: T3, bovine factor Xa (Bos taurus, UniProt P00743); experiment: Anti-FXa activity: inhibition of S-2222 degradation; format: biochemical; details: substrate S-2222, 37°C, pH 8.3; read-out: FXa S-2222 (I50)
T3 construct: 0.05 ml of 0.3 vial/ml bovine factor Xa
T3 sequence (P00743 234-492 limits assumed): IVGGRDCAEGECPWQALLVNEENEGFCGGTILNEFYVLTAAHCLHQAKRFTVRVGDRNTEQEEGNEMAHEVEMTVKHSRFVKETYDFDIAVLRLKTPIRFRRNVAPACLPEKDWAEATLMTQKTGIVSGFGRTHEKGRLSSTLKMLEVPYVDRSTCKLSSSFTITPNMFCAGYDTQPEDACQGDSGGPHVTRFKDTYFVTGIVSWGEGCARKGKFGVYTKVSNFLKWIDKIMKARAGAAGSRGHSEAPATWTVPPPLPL
T3 sequence (P00743 41-180 partner limits assumed): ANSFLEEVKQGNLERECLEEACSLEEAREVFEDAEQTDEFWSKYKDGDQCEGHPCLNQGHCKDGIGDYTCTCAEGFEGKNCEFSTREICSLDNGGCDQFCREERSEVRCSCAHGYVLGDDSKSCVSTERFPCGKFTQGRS
Procedure: 4) Assay of anti-FXa activity Assay method of inhibition of S-2222 degradation
To 0.4 ml of the test substance dissolved in a 0.05 M Tris-HC1 (pH 8.3) buffer is added 0.05 ml of 3 mM S-2222 solution, and after incubation at 37°C for about 4 minutes, an addition of 0.05 ml of 0.3 vial/ml bovine factor Xa, and a reaction at 37°C for 4 minutes, the - reaction was terminated by adding 0.05 ml of 50% acetic acid.

experimental DIC = experiment: Effect on experimental DIC and MOF (endotoxin-induced); format: in vivo, SD-rats; details: Dose 100 μg/kg/min infusion, rat, 4 hours after endotoxin 10 mg/kg; for CPK: Table 5-1
Procedure: [III] Effect on experimental DIC
SD-rats, body weight of about 200 g, were starved overnight. Sodium pentobarbital was intraperioneally administered to anesthetize a rat, and then a cannula was inserted to the femoral vein, and the test substance dissolved in an injective 5% glucose solution was continually infused. Then, 10 minutes from the start of the injection, endotoxin (E. coli 0127:B8, Difco, U.S.) dissolved in physiological saline was injected through the tail vein to an amount of 10 mg/kg body weight, and 4 hours from the administration of endotoxin, the abdomen was opened, blood was obtained from the abdominal aorta, and platelets (Plt), fibrinogen (Fbg), fibrin degradation product (FDP), glutamic oxaloacetic transamirase (GOT), creatinine phosphokinase (CPK), and blood urin nitrogen (BUN) were measured.

| Structure (SMILES) | pIC50 (human urokinase) | Effect on experimental pancreatitis Survival ratio(%) After 24 hours [1] [%] | Effect on experimental pancreatitis Survival ratio(%) After 48 hours [1] [%] | pIC50 (human plasmin [2]) | pIC50 (human plasmin [3]) | Effect on experimental shock (Survival ratio (%) after 24 hours) (experimental shock) [%] | pIC50 (human plasma kallikrein) | LD50 (in vivo) [mg/kg] | pIC50 (bovine factor Xa) | BUN (experimental DIC) [mg/dL] | FDP (experimental DIC) [µg/mL] | Fbg (experimental DIC) [mg/dL] | GOT (experimental DIC) [U/ml] | Plat (experimental DIC) | CPK (experimental DIC) [U/1] |
| --- | --- | --- | --- | --- | --- | --- | --- | --- | --- | --- | --- | --- | --- | --- | --- |
| NC[C@H]1CC[C@H](C(=O)NC(Cc2cccc(Oc3ccccc3)c2)C(=O)Nc2ccnc(Cl)c2)CC1 (mixture of isomers) [Compound 11] | 3.72 | 42.0 | 26.7 | 4.51 | 5.00 | 84 | 6.37 | > 100 |  |  |  |  |  |  |  |
| NC[C@H]1CC[C@H](C(=O)NC(Cc2cccc(Oc3ccccc3)c2)C(=O)Nc2ccncc2)CC1 (mixture of isomers) [Compound 13] |  |  |  |  |  | 79 |  | 85 | < 3.70 |  |  |  |  |  |  |
| NC[C@H]1CC[C@H](C(=O)NC(Cc2cccc(Oc3ccccc3)c2)C(=O)Nc2cccnc2)CC1 (mixture of isomers) [Compound 14] | 3.60 | 58.3 | 41.7 | 4.01 | 4.15 |  | 5.70 | 50 |  |  |  |  |  |  |  |
| CC(=O)c1ccc(NC(=O)[C@H](Cc2cccc(Oc3ccccc3)c2)NC(=O)[C@H]2CC[C@H](CN)CC2)cc1 [Compound 7] |  |  |  |  |  | 90 |  | 60 | < 3.70 |  |  |  |  |  |  |
| NC[C@H]1CC[C@H](C(=O)N[C@@H](Cc2ccc(OCc3ccccc3)cc2)C(=O)Nc2ccncn2)CC1 [Compound 15] | 3.96 | 50.0 | 25.0 | 4.82 | 5.17 |  | 5.29 | > 100 |  |  |  |  |  |  |  |
| NC[C@H]1CC[C@H](C(=O)N[C@@H](Cc2ccc(OCc3ccccc3)cc2)C(=O)Nc2ccc(CCC(=O)O)cc2)CC1 [Compound 16] | 3.68 | 58.3 | 58.3 | 4.92 | 5.05 |  | 5.74 | > 100 |  |  |  |  |  |  |  |
| NCC1CCC(C(=O)NC(Cc2ccccc2)C(=O)Nc2ccc(CC(=O)O)cc2)CC1 (stereo not drawn) [Compound 17] | 3.21 |  |  | 3.12 | 3.34 |  | 5.74 |  | < 3.00 | 34 ± 11 | 16 to 64 | 143 ± 23 | 146 ± 21 | 63 ± 2 x 10^4/μl | 22 ± 6 |
| CC(=O)c1ccc(NC(=O)[C@H](Cc2ccc(OCc3ccccn3)cc2)NC(=O)c2ccc(CN)cc2)cc1 [Compound 19] |  | 50.0 | 33.3 | 5.38 | 5.60 |  | 4.92 |  |  | 30 ± 4 | 16 to 32 | 147 ± 16 | 219 ± 39 | 80 ± 11 x 10^4/μl | 19 ± 2 |
| CCOC(=O)CCc1ccc(NC(=O)C(Cc2ccc(OCc3ccccc3)cc2)NC(=O)C2CCC(CN)CC2)cc1 (stereo not drawn) [Compound 21] |  | 45.5 | 36.4 |  |  |  |  | 100 |  |  |  |  |  |  |  |
| NCC1CCC(C(=O)NC(Cc2ccccc2)C(=O)Nc2ccc(C(=O)O)cc2)CC1 (stereo not drawn) [Compound 22] | < 3.00 |  |  | < 3.00 | 3.25 |  | 5.57 | > 100 | < 3.40 | 30 ± 3 | 32 to 64 | 107 ± 18 | 195 ± 35 | 62 ± 12 x 10^4/μl | 14 ± 3 |
| NCC1CCC(C(=O)NC(Cc2ccc(OCc3ccccc3)cc2)C(=O)Nc2ccncc2)CC1 (stereo not drawn) [Compound 23] | < 3.00 |  |  | 3.92 | 3.85 | 51 | 3.44 | 60 |  |  |  |  |  |  |  |
| CC(=O)c1ccc(NC(=O)[C@@H](Cc2ccc(OCc3ccccn3)cc2)NC(=O)C2CCC(CN)CC2)cc1 (stereo partly drawn) [Compound 24] | < 3.00 |  |  | 4.11 | 3.62 |  | < 3.00 |  |  |  |  |  |  |  |  |
| NCC1CCC(C(=O)N[C@H](Cc2ccc([N+](=O)[O-])cc2)C(=O)Nc2ccc(C(=O)c3ccccc3)cc2)CC1 (stereo partly drawn) [Compound 25] | 3.77 |  |  | 3.62 | 4.24 | 70 | < 3.60 |  |  |  |  |  |  |  |  |
